Test results: patent publication US20100068208A1, “Degranulation inhibitor” (priority 2005, published 2010)
Where two headings read alike, the source gives them in different places.

How the values were obtained:
[1] = tested on: TGR12; format: cell-based, human; settings: for EC50: CHO-TGR12, read-out: EC50 in the calcium increasing effect on CHO-TGR12
Protocol: CHO/dhfr^− cells (hereinafter CHO) were incubated in α-MEM (Invitrogen) supplemented with 10% fetal calf serum. After a termination codon in the TGR12-encoding nucleotide sequence was removed, a nucleotide sequence ligated with the nucleotide sequence encoding GFP (Wako Pure Chemical) [hereinafter briefly referred to as TGR12-GFP (DNA having the nucleotide sequence represented by SEQ ID NO: 31)] was incorporated into vector plasmid pAKKO-111H (the same vector plasmid as pAKKO1.11H described in Biochim. Biophys. Acta, 1219, 251-259 (1994)) for animal cell expression, and the vector plasmid was stably expressed to establish TGR12-GFP-expressed CHO cell line (hereinafter CHO-TGR12). CHO-TGR12 was incubated in nucleic acid-free α-MEM medium (Invitrogen) containing 10% dialyzed fetal calf serum.
CHO-TGR12 was plated in a 96-well plate at a density of 30,000 cells/well. After incubation overnight, the medium was discarded and 100 μL/well of assay buffer [Hank's Balanced Salt Solution (Invitrogen), 20 mM HEPES (Dojin Chemical Laboratory) and 2.5 mM Probenecid (Sigma)] containing 4 μM Fluo3-AM (Dojin Chemical Laboratory) was added, which was then allowed to stand for an hour at 37° C. […] After the cells were washed with assay buffer, fluorescence reflecting changes in intracellular calcium levels was assayed on FLIPR (Molecular Device). Ten seconds after initiation of the assay, 50 μL of a sample was added at a rate of 50 μL/second. Fluorescence measurement was taken every 1 second during the first 60 seconds and then every 6 seconds during the next 120 seconds; the highest fluorescence intensity over a 3 minute period was taken as the maximum activity under the stimulation condition, representing the mean value of 3 wells. The EC50 values were determined using Graphpad PRISM 4 (Graphpad Software).

[2] = tested on: human mast cell line LAD 2; test: TGR12 ligand-dependent degranulation of LAD 2 (β-hexosaminidase release); format: cell-based
Protocol: Human mast cell line LAD 2 was incubated in StemPro-34 medium (Invitrogen) supplemented with 100 ng/mL of stem cell factor (Immuno-Biological Laboratories Co., Ltd.). […] Subsequently, Tyrode's buffer containing 50 μL of TGR12 ligand (Peptide Institute, Inc.) in various concentrations was added and incubation was continued at 37° C. for further 20 minutes to induce degranulation. The degree of degranulation was determined by assaying the β-hexosaminidase activity in the degranulation assay supernatant as given below. The supernatant was dispensed into a 96-well plate and 0.1M citrate (pH 4.5)/1 mM 4-methyl umbelliferyl-2-acetamido-2-deoxy-beta-D-glucopyranoside (Wako Pure Chemical) in 5-fold of the supernatant was added thereto, followed by incubation at 37° C. for an hour. […] The activity was then assayed using Fusion-α (Perkin-Elmer). The β-hexosaminidase activity was also shown by the activity in the supernatant obtained by centrifugation after freezing and thawing LAD 2 four times, which was made total β-hexosaminidase activity in LAD 2, and the degree of degranulation was shown as the percentage of the β-hexosaminidase activity in the LAD 2 supernatant based on the total β-hexosaminidase activity.

[3] = tested on: TGR12; parameters: species or system human; settings: CHO-TGR12GFP, 200 pM [125I]-rCST14 (Y0), 4° C. 2 hours; read-out: IC50 (competitive binding, Hill plot analysis)
Protocol: [^125I]-Labeled rat cortistatin-14 (Tyr0) (hereinafter [^125I]-rCST14 (Y0)) used for the competitive binding assay was prepared as follows. After 3 nmol/6 μL of rCST14 (Y0) (Funakoshi Co.), 6 μL of 10 μg/mL lactoperoxidase (in 0.1M HEPES (pH 7, 4)), 6 μL of 0.001% H2O2 and 6 μL of 37 MBq NaI (6 μL of 15 mg/100 mL NaI was used in cold run) were mixed, the mixture was reacted at room temperature for 20 minutes. […] For fractionation, TSKgel ODS-80™ was used, 10% MeCN/0.1% TFA was used as eluant A and 60% MeCN/0.1% TFA was used as eluant B at a gradient of 0-25 (2 mins.), 25-27.5 (3 mins.) and 27.5-35 (60 mins.), respectively; and the flow rate was 1 mL/min.
CHO/dhfr^− cells (hereinafter CHO) were incubated in α-MEM (Invitrogen) supplemented with 10% fetal calf serum. […]
The binding assay using CHO-TGR12GFP was performed as follows. […] After washing 3 times with 500 μL of the assay buffer, the cells were lysed in 250 μL of 0.5N NaOH and the lysate was recovered for measurement of the radioactivity.

[4] = CHO-TGR12, 0.3 nM, highest fluorescence intensity over 3 minutes
[5] = LAD 2, read-out: EC50 in the degranulation on LAD 2

Row | SMILES | maximum activity in the calcium increasing effect [1, 4] | maximum activity in the calcium increasing effect ([1]; CHO-TGR12, 3 nM) | maximum activity in the calcium increasing effect ([1]; CHO-TGR12, 30 nM) | maximum activity in the calcium increasing effect ([1]; CHO-TGR12, 300 nM) | maximum activity in the calcium increasing effect ([1]; CHO-TGR12, 3000 nM) | EC50 [1] [µM] | stimulated degranulation (β-hexosaminidase in supernatant, % of total) ([2]; LAD 2, 10 nM) [%] | stimulated degranulation (β-hexosaminidase in supernatant, % of total) ([2]; LAD 2, 30 nM) [%] | stimulated degranulation (β-hexosaminidase in supernatant, % of total) ([2]; LAD 2, 100 nM) [%] | stimulated degranulation (β-hexosaminidase in supernatant, % of total) ([2]; LAD 2, 300 nM) [%] | stimulated degranulation (β-hexosaminidase in supernatant, % of total) ([2]; LAD 2, 1 μM) [%] | stimulated degranulation (β-hexosaminidase in supernatant, % of total) ([2]; LAD 2, 3 μM) [%] | EC50 [2, 5] [µM] | IC50 [3] [µM] | EC50 [2] [µM] | stimulated degranulation (β-hexosaminidase in supernatant, % of total) ([2]; LAD 2, 3 nM) [%]
1 | CC[C@H](C)[C@H](NC(=O)CNC(=O)[C@H](CC(=O)O)NC(=O)[C@H](CO)NC(=O)[C@@H](N)Cc1c[nH]cn1)C(=O)N[C@@H](Cc1ccccc1)C(=O)N[C@H](C(=O)N[C@@H](CC(=O)O)C(=O)N[C@@H](CO)C(=O)N[C@@H](Cc1ccc(O)cc1)C(=O)N[C@@H](CO)C(=O)N[C@@H](CCCNC(=N)N)C(=O)N[C@@H](Cc1ccc(O)cc1)C(=O)N[C@@H](CCCNC(=N)N)C(=O)N[C@@H](CCCCN)C(=O)N[C@@H](CCC(N)=O)C(=O)N[C@@H](CCSC)C(=O)N[C@@H](C)C(=O)N[C@H](C(=O)N[C@@H](CCCCN)C(=O)N[C@@H](CCCCN)C(=O)N[C@@H](Cc1ccc(O)cc1)C(=O)N[C@@H](CC(C)C)C(=O)N[C@@H](C)C(=O)N[C@@H](C)C(=O)N[C@H](C(=O)N[C@@H](CC(C)C)C(N)=O)C(C)C)C(C)C)[C@@H](C)O [PACAP-27] | 48 | 58 | 939 | 23030 | 23728 | ~0.093 | 2.6 | 19.6 | 59.4 | 71.1 | 75.1 | 69.1 | ~0.051 | 0.264 | – | –
2 | CC(C)C[C@H](NC(=O)[C@H](C)NC(=O)[C@H](Cc1c[nH]c2ccccc12)NC(=O)[C@H](CCCCN)NC(=O)[C@H](CC(N)=O)NC(=O)[C@H](Cc1c[nH]c2ccccc12)NC(=O)[C@H](CCCCN)NC(=O)[C@H](CCCCN)NC(=O)[C@H](CCCNC(=N)N)NC(=O)[C@@H](N)Cc1ccccc1)C(=O)N[C@@H](CO)C(=O)N[C@@H](CCCNC(=N)N)C(N)=O [PAMP-12, proadrenomedullin N-terminal 20 peptide (9-20)] | 255 | 1617 | 22291 | 24088 | 23743 | ~0.098 | 30.7 | 52.1 | 65.2 | 67.7 | 69.3 | – | – | – | ~0.013 | 6.3
3 | CC[C@H](C)[C@H](NC(=O)[C@H](CO)NC(=O)[C@H](CC(N)=O)NC(=O)[C@H](CC(C)C)NC(=O)[C@H](Cc1ccc(O)cc1)NC(=O)[C@H](CCCCN)NC(=O)[C@H](CCCCN)NC(=O)[C@@H](NC(=O)[C@H](C)NC(=O)[C@H](CCSC)NC(=O)[C@H](CCC(N)=O)NC(=O)[C@H](CCCCN)NC(=O)[C@H](CCCNC(=N)N)NC(=O)[C@H](CC(C)C)NC(=O)[C@H](CCCNC(=N)N)NC(=O)[C@@H](NC(=O)[C@H](Cc1ccc(O)cc1)NC(=O)[C@H](CC(N)=O)NC(=O)[C@H](CC(=O)O)NC(=O)[C@@H](NC(=O)[C@H](Cc1ccccc1)NC(=O)[C@@H](NC(=O)[C@H](C)NC(=O)[C@H](CC(=O)O)NC(=O)[C@H](CO)NC(=O)[C@@H](N)Cc1c[nH]cn1)C(C)C)[C@@H](C)O)[C@@H](C)O)C(C)C)C(=O)N[C@@H](CC(C)C)C(=O)N[C@@H](CC(N)=O)C(N)=O [VIP, vasoactive intestinal polypeptide] | 56 | 60 | 16 | 11153 | 24007 | ~0.305 | 1.5 | 4.0 | 36.7 | 63.9 | 71.7 | 76.1 | ~0.105 | 2.04 | – | –
4 | CSCC[C@H](NC(=O)[C@H](CCCNC(=N)N)NC(=O)[C@@H](N)CC(=O)O)C(=O)N1CCC[C@H]1C(=O)N[C@H]1CSSC[C@@H](C(=O)N[C@@H](CCCCN)C(=O)O)NC(=O)[C@H](CO)NC(=O)[C@H](CO)NC(=O)[C@H](Cc2ccccc2)NC(=O)[C@H]([C@@H](C)O)NC(=O)[C@H](CCCCN)NC(=O)[C@H](Cc2c[nH]c3ccccc23)NC(=O)[C@H](Cc2ccccc2)NC(=O)[C@H](Cc2ccccc2)NC(=O)[C@H](CC(N)=O)NC(=O)[C@H](CCCNC(=N)N)NC1=O [cortistatin-17] | 67 | 54 | 94 | 17914 | 23647 | – | 1.6 | 2.8 | 26.5 | 52.8 | 62.2 | 58.9 | – | – | – | –
